Assay results published in PMC5626965, “Bifidobacterium bifidum Extracellular Sialidase Enhances Adhesion to the Mucosal Surface and Supports Carbohydrate Assimilation” (mBio, 2017).
Values belong to the molecule of their own block, whether it stands above or below them.

How the values were obtained:
[1] = biological target: T1, His-SiaBb1 (Bifidobacterium bifidum, UniProt A0ABM7ET56); test: fluorescence sialidase assay; assay type: biochemical; conditions: 50 μM recombinant protein, 30 min
T1 construct: gene BBBF_1779; His-tagged; native precursor 1,795 aa with Sec signal and C-terminal TM
T1 sequence (A0ABM7ET56 40-1795 limits assumed): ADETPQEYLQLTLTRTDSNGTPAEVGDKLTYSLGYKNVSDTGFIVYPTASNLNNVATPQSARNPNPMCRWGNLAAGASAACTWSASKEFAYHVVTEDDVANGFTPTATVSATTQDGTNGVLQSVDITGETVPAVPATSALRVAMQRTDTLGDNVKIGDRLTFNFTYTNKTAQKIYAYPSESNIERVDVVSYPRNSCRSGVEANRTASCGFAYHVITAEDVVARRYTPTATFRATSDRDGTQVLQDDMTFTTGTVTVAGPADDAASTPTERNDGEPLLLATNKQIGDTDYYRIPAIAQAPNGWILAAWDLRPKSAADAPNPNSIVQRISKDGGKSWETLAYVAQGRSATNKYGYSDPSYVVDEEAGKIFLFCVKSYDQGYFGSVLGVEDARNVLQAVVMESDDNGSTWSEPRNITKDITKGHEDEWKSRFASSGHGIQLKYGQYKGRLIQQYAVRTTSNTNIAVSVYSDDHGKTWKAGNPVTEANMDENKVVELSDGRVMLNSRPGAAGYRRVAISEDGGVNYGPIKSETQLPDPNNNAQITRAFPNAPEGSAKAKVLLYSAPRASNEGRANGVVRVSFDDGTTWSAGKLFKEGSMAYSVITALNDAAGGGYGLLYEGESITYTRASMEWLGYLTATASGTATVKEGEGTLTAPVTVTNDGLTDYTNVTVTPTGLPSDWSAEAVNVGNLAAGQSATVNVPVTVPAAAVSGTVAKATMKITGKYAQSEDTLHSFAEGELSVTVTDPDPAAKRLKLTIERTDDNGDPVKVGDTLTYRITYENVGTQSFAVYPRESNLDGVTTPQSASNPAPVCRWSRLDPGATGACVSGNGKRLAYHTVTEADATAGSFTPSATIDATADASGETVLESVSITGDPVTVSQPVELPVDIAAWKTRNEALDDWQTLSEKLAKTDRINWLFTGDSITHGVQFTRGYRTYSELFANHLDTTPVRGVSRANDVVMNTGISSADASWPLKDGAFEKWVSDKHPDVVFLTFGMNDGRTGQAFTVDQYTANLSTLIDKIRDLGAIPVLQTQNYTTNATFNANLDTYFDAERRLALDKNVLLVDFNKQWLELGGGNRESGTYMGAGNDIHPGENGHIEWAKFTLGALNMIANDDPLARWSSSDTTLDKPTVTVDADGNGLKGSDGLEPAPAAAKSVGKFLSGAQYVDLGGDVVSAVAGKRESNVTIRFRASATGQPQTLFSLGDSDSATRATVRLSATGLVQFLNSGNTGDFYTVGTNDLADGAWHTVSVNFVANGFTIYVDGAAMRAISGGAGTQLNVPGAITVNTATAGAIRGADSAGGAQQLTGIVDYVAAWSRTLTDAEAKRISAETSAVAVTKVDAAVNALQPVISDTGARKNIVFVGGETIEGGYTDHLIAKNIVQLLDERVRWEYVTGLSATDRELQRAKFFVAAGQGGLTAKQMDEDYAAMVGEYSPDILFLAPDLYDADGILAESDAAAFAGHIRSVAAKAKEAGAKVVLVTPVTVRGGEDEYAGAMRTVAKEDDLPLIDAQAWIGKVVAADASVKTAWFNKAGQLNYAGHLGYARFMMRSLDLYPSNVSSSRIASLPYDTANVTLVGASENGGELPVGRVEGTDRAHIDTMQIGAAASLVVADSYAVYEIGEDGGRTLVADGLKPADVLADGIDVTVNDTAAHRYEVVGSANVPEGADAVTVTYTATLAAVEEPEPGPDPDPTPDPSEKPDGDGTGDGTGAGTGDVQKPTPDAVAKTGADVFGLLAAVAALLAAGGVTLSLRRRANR

[2] = biological target: T2, His-Sia (sialidase domain of SiaBb2, aa 187 to 553) (Bifidobacterium bifidum, UniProt A0A1Y1C8G4); test: SPR, His-Sia immobilized on CM5 chip; conditions: HBS-EP pH 7.4, 25°C; binding decreased by 5 mM Neu5Ac2en; also glycoarray positive
T2 construct: conserved sialidase domain aa 187-553 of 835 aa precursor; N-terminal 6xHis tag; recombinant; biotinylated for glycoarray, immobilized on CM5 chip for SPR; GH33

[3] = biological target: T3, His-SiaBb2 (Bifidobacterium bifidum, UniProt A0A1Y1C8G4); test: inhibition of sialidase activity, dose response; assay type: biochemical; conditions: maximal inhibition at […]
T3 construct: gene sia2; N-terminal 6xHis tag; native precursor 835 aa with Sec signal and C-terminal TM
T3 sequence (A0A1Y1C8G4 37-810): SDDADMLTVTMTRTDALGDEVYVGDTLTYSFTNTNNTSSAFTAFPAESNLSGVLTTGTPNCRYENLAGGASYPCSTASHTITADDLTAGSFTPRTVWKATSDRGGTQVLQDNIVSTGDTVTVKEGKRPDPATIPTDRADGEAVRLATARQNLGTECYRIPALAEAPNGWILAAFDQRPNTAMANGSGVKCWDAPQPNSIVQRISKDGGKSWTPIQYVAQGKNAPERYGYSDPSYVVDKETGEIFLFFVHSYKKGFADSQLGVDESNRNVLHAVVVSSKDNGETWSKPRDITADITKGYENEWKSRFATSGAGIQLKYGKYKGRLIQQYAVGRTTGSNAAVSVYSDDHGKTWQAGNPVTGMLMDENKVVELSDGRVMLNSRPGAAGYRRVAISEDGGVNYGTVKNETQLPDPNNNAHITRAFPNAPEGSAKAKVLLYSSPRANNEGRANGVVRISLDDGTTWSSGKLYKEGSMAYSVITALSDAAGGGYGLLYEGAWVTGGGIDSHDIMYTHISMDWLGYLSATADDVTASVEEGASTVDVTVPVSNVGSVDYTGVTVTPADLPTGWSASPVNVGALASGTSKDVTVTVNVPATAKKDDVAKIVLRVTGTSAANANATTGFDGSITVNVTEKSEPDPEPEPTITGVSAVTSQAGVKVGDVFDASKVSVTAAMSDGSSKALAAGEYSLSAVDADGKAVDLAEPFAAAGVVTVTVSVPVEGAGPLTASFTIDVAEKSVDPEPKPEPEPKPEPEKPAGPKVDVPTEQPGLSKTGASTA

Structure (SMILES): CC(=O)N[C@H]1[C@H]([C@H](O)[C@H](O)CO)OC(Oc2ccc3c(C)cc(=O)oc3c2)(C(=O)O)C[C@@H]1O (stereo partly drawn) [4-MU-Neu5Ac, 2′-(4-methylumbelliferyl)-α-D-N-acetylneuraminic acid]
fluorescence sialidase assay [1]: all sialidase peptides with the exception of His-ΔSia showed time-dependent enzymatic activity

MR at 10 μM (analyte/ligand, end of association) [2]: 1.3
Structure (SMILES): CC(=O)N[C@H]1[C@H]([C@H](O)[C@H](O)CO)O[C@@](OC[C@H]2O[C@@H](O[C@H]3[C@H](O)[C@@H](O)C(O)O[C@@H]3CO)[C@H](O)[C@@H](O)[C@H]2O)(C(=O)O)C[C@@H]1O (stereo partly drawn) [6'SL]

Structure (SMILES): CC(=O)N[C@H]1[C@H]([C@H](O)[C@H](O)CO)OC(C(=O)O)=C[C@@H]1O [Neu5Ac2en, N-acetyl-2,3-didehydro-2-deoxyneuraminic acid]
inhibition of sialidase activity, dose response [3]: Neu5Ac2en treatment inhibited the sialidase activity of His-SiaBb2 in a dose-dependent manner
